# Data as given in ChEMBL document CHEMBL1201862, “PubChem BioAssay data set” (2004).
# Active and inactive are the calls of the source.
# Key:
# [1] = growth suppression of PTEN-null colon cells, dose response, cell-based, HCT116 PTEN knockout (AID 1047); assay type: functional;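 also: HCT116 colon tumor cells with PTEN knocked out; cells exposed to compound for 60 hours before readout; potency for loss of cell viability measured by luminescence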
# [2] = growth suppression of beta-catenin-knockout colon cells, dose response, cell-based, HCT116, human colon tumor (AID 1045); assay type: functional;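 also: HCT116 colon tumor cells with beta catenin knocked out; cells exposed to compound for 60 hours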
# [3] = biological target: T1, Mannose-6-phosphate isomerase (Homo sapiens, UniProt P34949); experiment: human PMI inhibitors, high substrate, primary screen, biochemical, fluorescence intensity, high mannose 6-phosphate (AID 1220)
# T1 sequence (P34949 whole entry): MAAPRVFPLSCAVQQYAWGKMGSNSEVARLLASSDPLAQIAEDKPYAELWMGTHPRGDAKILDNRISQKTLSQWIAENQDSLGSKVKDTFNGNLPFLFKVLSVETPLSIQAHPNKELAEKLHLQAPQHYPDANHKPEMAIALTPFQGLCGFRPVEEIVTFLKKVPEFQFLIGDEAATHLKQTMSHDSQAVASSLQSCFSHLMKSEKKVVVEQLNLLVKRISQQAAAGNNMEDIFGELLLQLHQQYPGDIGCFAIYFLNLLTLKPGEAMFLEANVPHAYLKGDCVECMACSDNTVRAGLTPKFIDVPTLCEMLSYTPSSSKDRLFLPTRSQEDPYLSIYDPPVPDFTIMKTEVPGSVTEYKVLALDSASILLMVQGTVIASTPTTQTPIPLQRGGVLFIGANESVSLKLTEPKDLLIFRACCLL
# [4] = biological target: Heat shock protein HSP 90-alpha (Homo sapiens, UniProt P07900); assay type: functional, organism-based
# INS1 = experiment: beta cell apoptosis inhibitors, cytokine rescue, dose response, luminescence, retest (AID 449756); assay type: functional, cell-based; settings: Rattus norvegicus, INS1;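 also: cell death triggered by IL-1 beta plus TNF-alpha plus IFN-gamma mixture; protective hits raise ATP signal compared with cytokine alone wells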
# [5] = Fluorescence-based cell-based high throughput dose response assay for inhibitors of the interaction of nucleotide-binding oligomerization domain containing 2 (NOD2) and the receptor-interacting serine-threonine kinase 2 (RIPK2).; assay type: functional; settings: Homo sapiens
# Beta Lactamase = Beta Lactamase (Pseudomonas aeruginosa, UniProt Q932Y6); experiment: beta-lactamase reporter inhibitor potency, dose response, artefact control for NOD2-RIPK2 interaction inhibitor project, BLA reporter cells, FRET fluorescence (AID 651552); assay type: functional, cell-based
# [6] = biological target: Long-chain-fatty-acid--AMP ligase FadD28 (Mycobacterium tuberculosis, UniProt P9WQ59); experiment: Fluorescence polarization aasay to screen for inhibitors that compete for the binding of FadD28 to a bisubstrate Measured in Biochemical System Using Plate Reader - 2147-01_Inhibitor_Dose_CherryPick_Activity.; assay type: functional, Mycobacterium tuberculosis H37Rv
# HeLa = experiment: HeLa cell cytotoxicity, dose response, cytotoxicity control for MITF activator project, CellTiter-Glo luminescence, cherry-pick samples (AID 540259); assay type: functional, cell-based; settings: Homo sapiens
# Cytochrome P450 3A4 = Cytochrome P450 3A4 (Homo sapiens, UniProt P08684); settings: Potency;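 also: confirmatory qHTS run detecting inhibitors and substrates of CYP3A4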
# [7] = biological target: Aryl hydrocarbon receptor (Homo sapiens, UniProt P35869); settings: Potency;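 also: confirmatory quantitative high-throughput screen measuring activation of the AhR signaling pathway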
# [8] = biological target: Ras and Rab interactor 1/Tyrosine-protein kinase ABL1 (Homo sapiens, UniProt P00519+Q13671); assay type: functional;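 also: biochemical TR-FRET dose-response test measuring inhibition of binding between Rin1 and Abl proteins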
# Nonstructural protein 1 = Nonstructural protein 1 (Influenza A virus, UniProt Q194T2); assay type: functional, Influenza A virus (A/California/07/2009(H1N1))
# [9] = biological target: 26S proteasome non-ATPase regulatory subunit 14 (Homo sapiens, UniProt O00487); experiment: inhibition of proteasome subunit RPN11 – biochemical, fluorescence polarization, uHTS hits, confirmation (AID 602368); assay type: functional
# [10] = biological target: 72 kDa type IV collagenase (Homo sapiens, UniProt P08253); experiment: Dose Response validation of uHTS RPN11 inhibitor hits using a MMP-2 Fluorescence assay.; assay type: functional
# Prothrombin = Prothrombin (Bos taurus, UniProt P00735); experiment: thrombin inhibition, dose response, biochemical, fluorescence polarization, uHTS hits (AID 602369); assay type: functional
# [11] = biological target: Apoptotic protease-activating factor 1 (Homo sapiens, UniProt O14727); assay type: functional
# Melanocortin receptor 4 = Melanocortin receptor 4 (Homo sapiens, UniProt P32245); experiment: MC4R antagonist potency on cAMP, dose response, cell-based, TR-FRET, biased antagonists (AID 602298); assay type: functional;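 also: antagonist potency against agonist-stimulated cAMP production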
# [12] = nonselective inhibitors of cellular cAMP signaling, dose response, counter-screen for MC4R biased antagonist project, cell-based, TR-FRET cAMP detection (AID 602305); assay type: functional;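 also: U2OS cells stimulated with forskolin near its EC80 as the cAMP inducer; potency is for inhibition of forskolin-stimulated cAMP signaling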
# [13] = biological target: T2, Rac GTPase-activating protein 1 (Homo sapiens, UniProt Q9H0H5); experiment: MgcRacGAP GTPase-activating activity inhibitors, confirmation, biochemical, ADP Hunter fluorescence, primary and confirmatory (AID 624330); assay type: functional
# T2 sequence (Q9H0H5 whole entry): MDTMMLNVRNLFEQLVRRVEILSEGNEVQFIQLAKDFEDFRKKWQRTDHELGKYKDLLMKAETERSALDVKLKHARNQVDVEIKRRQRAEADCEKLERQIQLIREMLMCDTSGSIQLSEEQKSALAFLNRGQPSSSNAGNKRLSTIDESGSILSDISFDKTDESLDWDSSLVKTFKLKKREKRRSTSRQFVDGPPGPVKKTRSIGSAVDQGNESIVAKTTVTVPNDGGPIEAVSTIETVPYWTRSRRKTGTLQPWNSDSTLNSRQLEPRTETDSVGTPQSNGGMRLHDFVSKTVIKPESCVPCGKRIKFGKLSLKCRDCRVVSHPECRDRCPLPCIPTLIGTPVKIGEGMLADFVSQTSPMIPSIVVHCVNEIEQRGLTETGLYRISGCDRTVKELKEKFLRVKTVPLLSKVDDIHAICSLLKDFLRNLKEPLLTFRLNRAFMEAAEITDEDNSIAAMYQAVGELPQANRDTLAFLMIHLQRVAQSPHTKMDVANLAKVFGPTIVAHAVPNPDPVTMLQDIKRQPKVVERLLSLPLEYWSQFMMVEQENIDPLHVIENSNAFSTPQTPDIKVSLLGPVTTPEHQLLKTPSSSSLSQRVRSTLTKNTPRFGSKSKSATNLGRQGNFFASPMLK
# [14] = biological target: DNA repair and recombination protein RAD54-like (Homo sapiens, UniProt Q92698); experiment: inhibitors of human RAD54 branch migration, confirmation, biochemical, fluorescence, cherry-picked samples, dose series (AID 651657); assay type: functional
# [15] = biological target: T3, Histone-lysine N-methyltransferase NSD2 (Homo sapiens, UniProt O96028); assay type: biochemical
# T3 sequence (O96028 whole entry): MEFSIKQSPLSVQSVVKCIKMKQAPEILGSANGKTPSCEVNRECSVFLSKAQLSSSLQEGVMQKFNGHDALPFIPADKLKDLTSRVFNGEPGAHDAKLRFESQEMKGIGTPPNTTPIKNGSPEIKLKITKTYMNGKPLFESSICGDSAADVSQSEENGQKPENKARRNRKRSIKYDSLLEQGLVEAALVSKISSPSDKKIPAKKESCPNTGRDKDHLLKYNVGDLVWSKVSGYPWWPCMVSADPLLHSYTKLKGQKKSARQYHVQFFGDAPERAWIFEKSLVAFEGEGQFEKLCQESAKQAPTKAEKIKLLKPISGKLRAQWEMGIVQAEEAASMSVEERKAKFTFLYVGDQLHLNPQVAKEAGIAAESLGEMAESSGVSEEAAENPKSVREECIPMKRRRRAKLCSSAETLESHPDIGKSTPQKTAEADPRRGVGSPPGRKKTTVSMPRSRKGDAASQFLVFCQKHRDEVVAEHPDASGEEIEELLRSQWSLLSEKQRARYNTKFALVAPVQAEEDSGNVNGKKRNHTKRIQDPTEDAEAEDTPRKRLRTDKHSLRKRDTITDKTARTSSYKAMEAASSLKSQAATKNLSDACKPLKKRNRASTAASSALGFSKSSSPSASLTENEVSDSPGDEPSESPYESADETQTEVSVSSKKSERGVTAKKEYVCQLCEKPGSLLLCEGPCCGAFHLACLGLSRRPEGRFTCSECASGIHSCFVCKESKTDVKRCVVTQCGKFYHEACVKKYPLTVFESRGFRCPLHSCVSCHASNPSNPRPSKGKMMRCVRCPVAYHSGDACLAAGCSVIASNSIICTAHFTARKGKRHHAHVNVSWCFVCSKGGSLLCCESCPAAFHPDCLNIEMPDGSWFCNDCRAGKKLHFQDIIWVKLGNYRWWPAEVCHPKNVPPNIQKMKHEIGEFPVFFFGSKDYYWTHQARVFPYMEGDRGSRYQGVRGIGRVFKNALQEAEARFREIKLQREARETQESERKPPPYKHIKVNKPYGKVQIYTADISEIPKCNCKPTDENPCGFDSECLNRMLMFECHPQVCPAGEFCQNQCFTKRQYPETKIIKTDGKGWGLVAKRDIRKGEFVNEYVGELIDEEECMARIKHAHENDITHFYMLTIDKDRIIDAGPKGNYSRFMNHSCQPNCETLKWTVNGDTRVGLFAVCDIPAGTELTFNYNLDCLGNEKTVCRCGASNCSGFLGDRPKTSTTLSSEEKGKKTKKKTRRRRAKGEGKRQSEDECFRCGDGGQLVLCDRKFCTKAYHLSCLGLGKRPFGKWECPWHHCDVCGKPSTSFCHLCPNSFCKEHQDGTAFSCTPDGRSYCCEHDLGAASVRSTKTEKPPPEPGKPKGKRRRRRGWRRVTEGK
# [16] = biological target: T4, Methionyl-tRNA synthetase, putative (Trypanosoma brucei brucei, UniProt Q38C91); assay type: functional, Trypanosoma brucei brucei strain 927/4 GUTat10.1
# T4 sequence (Q38C91 whole entry): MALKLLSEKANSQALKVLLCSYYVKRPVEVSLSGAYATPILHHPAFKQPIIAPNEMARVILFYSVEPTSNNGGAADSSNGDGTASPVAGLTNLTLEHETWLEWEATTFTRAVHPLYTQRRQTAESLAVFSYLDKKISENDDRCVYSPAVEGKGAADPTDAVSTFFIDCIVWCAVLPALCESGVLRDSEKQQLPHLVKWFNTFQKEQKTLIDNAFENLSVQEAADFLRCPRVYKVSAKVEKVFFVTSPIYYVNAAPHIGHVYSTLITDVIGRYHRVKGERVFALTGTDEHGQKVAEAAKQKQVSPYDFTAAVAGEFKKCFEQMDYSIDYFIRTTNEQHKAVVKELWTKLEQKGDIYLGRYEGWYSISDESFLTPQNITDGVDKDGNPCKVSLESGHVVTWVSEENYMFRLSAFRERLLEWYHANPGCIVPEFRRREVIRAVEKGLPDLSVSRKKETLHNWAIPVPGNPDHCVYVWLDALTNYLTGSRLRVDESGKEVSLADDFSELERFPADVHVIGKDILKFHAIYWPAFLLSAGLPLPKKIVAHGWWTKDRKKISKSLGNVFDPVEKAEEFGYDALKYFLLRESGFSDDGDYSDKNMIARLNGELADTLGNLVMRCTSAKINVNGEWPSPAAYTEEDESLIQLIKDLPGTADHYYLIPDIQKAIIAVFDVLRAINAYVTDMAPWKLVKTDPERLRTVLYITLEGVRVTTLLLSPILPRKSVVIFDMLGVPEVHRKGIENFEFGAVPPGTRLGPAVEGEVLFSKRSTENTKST
# [17] = Counterscreen for inhibitors of Trypanosoma brucei methionyl tRNA synthetase (MetRS): Luminescence-based cell-based high throughput dose response assay to identify compounds that are cytotoxic to Jurkat human T lymphocyte cells.; assay type: functional
# [18] = biological target: T4, Methionyl-tRNA synthetase, putative; assay type: functional, Trypanosoma brucei brucei strain 927/4 GUTat10.1; remark: listed apart in the source
# [19] = Late stage counterscreen for inhibitors of Trypanosoma brucei methionyl tRNA synthetase (MetRS): Luminescence-based cell-based high throughput dose response assay to identify compounds that are cytotoxic to Jurkat human T lymphocyte cells.; assay type: functional
# [20] = Shn3 3'UTR reporter inhibitors, dose response, cell-based, Clone20 osteoblasts, firefly luciferase, cherry-picked (AID 624132); assay type: functional;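 also: firefly luciferase luminescence from reporter carrying the Shn3 3'UTR in osteoblasts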
# [21] = HepG2 cell cytotoxicity, dose response, cytotoxicity control for Shn3 inhibitor project, CellTiter-Glo, cherry-picked (AID 624134); assay type: functional, cell-based
# [22] = control 3'UTR Renilla luciferase suppression, dose response, counter-screen for Shn3 inhibitor project, cell-based, Clone20-Shn3RL, cherry-picked (AID 624133); assay type: functional
# Protein Wnt-3a = Protein Wnt-3a (Mus musculus, UniProt P27467); experiment: Wnt3a-driven reporter signaling inhibition, dose response, selectivity assay for Gli-SUFU antagonist project, Wnt-LIGHT cells, luminescence (AID 651570); assay type: functional; settings: read-out: IC50_Mean;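 also: Wnt-LIGHT reporter cells stimulated with conditioned medium from Wnt3a-producing cells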
# Chain of Protein Wnt-3a (P27467 whole entry): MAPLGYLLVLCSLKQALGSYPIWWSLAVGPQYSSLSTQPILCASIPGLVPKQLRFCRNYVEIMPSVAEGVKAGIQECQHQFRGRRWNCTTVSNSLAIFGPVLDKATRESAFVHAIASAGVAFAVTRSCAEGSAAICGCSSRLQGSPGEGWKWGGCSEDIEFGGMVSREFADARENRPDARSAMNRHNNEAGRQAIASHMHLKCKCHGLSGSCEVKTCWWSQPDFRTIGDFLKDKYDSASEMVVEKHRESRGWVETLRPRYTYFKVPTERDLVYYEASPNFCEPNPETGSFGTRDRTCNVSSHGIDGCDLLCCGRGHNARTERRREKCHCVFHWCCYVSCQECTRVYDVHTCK
# Chain of 26S proteasome non-ATPase regulatory subunit 14 (O00487 whole entry): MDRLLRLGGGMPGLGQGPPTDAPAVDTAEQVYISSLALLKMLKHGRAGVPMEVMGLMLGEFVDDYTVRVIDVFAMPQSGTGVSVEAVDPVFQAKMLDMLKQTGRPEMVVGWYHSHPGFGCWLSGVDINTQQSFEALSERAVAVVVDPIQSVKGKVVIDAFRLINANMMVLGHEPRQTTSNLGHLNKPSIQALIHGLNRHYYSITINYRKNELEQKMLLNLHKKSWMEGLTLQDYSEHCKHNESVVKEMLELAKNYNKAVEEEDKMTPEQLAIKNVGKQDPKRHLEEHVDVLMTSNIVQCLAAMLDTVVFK
# Chain of Melanocortin receptor 4 (P32245 whole entry): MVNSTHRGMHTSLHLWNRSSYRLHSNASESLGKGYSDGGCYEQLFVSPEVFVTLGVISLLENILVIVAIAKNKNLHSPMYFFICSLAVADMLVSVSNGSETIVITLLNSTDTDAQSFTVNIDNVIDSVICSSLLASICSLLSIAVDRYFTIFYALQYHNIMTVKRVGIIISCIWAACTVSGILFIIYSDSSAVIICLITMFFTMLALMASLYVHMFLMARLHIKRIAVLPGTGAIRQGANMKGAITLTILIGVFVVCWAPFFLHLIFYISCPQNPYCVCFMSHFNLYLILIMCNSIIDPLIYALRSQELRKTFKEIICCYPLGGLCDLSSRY
# Chain of 72 kDa type IV collagenase (P08253 whole entry): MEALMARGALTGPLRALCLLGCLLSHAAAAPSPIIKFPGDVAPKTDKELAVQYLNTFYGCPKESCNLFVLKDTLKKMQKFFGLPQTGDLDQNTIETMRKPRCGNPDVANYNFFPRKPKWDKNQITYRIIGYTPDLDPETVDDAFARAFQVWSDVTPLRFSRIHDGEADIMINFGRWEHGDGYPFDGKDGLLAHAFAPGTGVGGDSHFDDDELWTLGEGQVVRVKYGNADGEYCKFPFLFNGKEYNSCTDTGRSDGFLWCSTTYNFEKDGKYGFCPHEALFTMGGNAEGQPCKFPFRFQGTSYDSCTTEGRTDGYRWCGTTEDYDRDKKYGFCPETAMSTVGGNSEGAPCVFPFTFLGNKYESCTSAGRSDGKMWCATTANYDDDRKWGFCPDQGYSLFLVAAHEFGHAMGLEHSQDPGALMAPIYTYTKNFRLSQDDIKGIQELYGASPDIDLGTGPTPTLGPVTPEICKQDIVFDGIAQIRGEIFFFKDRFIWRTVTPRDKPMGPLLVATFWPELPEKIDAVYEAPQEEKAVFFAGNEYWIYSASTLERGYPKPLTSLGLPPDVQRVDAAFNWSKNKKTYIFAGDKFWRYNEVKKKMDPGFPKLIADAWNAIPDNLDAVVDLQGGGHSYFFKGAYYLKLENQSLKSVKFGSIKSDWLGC
# Chain of Long-chain-fatty-acid--AMP ligase FadD28 (P9WQ59 whole entry): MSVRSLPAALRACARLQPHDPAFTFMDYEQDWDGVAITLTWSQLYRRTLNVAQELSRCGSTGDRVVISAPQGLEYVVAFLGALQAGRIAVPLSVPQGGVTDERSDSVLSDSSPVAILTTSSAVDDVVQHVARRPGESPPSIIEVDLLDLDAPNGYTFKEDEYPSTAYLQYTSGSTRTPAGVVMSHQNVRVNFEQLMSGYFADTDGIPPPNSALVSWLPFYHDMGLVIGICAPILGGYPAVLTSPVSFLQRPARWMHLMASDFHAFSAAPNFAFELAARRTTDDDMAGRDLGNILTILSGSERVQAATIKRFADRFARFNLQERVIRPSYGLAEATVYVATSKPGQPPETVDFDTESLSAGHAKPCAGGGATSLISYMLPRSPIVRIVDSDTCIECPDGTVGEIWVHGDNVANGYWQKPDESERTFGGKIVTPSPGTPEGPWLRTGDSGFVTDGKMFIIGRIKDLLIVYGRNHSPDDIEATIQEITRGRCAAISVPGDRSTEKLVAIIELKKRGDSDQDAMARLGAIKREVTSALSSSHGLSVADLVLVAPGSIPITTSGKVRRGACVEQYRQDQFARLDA
# Chain of Ras and Rab interactor 1/Tyrosine-protein kinase ABL1 (P00519 whole entry): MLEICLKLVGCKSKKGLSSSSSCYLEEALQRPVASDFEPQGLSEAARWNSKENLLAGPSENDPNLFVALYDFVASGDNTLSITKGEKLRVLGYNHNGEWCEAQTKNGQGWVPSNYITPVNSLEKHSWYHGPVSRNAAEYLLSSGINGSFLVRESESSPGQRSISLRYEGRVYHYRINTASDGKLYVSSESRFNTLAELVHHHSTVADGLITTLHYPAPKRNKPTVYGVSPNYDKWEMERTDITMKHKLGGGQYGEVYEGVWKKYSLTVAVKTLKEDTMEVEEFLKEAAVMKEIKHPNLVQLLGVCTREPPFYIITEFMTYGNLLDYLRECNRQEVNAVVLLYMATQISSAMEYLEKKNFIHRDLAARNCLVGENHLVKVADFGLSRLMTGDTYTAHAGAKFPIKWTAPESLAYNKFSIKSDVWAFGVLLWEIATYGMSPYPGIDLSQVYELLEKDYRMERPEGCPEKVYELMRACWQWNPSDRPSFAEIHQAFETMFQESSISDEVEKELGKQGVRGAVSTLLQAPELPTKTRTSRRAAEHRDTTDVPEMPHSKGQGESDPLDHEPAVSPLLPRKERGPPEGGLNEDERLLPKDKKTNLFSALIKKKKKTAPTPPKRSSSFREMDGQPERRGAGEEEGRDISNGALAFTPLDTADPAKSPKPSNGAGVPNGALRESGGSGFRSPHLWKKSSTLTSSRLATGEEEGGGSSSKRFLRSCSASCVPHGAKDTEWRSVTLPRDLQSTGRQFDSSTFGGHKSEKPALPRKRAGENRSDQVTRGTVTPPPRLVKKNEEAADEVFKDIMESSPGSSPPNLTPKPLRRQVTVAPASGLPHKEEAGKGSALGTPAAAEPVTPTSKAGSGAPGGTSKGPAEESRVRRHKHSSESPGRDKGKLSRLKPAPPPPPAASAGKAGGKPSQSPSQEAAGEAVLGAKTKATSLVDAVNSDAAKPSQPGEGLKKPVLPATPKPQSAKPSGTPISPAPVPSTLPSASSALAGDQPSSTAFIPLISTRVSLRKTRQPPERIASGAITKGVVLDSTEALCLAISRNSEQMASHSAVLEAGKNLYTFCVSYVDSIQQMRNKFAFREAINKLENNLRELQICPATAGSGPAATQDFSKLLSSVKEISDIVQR
# Chain of Ras and Rab interactor 1/Tyrosine-protein kinase ABL1 (Q13671 whole entry): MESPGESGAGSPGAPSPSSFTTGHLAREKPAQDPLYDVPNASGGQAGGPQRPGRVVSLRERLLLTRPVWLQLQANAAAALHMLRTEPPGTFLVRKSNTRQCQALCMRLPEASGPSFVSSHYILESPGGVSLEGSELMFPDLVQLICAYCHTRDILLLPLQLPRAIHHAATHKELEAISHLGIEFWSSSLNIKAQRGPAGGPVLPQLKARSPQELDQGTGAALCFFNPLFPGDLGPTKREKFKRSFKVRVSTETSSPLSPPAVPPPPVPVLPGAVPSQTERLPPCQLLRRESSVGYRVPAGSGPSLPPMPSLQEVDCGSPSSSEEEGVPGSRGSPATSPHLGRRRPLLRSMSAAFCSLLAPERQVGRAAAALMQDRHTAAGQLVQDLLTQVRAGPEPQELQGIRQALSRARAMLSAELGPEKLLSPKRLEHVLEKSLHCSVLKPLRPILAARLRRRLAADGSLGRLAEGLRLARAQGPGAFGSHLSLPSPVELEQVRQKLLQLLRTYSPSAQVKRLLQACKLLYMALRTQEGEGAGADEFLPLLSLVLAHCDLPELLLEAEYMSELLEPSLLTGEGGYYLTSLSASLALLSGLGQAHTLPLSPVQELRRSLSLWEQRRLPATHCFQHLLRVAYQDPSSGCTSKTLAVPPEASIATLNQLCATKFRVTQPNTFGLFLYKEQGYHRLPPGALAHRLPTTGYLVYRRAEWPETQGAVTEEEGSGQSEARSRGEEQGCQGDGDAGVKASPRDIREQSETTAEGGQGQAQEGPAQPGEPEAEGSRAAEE
# Chain of Nonstructural protein 1 (Q194T2 whole entry): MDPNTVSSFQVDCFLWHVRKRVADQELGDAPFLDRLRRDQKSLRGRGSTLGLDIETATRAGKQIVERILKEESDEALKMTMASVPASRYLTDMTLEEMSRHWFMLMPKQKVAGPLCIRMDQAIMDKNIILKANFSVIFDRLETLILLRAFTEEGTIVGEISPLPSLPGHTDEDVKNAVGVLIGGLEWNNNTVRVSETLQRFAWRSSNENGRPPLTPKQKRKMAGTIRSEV
# Chain of Beta Lactamase (Q932Y6 whole entry): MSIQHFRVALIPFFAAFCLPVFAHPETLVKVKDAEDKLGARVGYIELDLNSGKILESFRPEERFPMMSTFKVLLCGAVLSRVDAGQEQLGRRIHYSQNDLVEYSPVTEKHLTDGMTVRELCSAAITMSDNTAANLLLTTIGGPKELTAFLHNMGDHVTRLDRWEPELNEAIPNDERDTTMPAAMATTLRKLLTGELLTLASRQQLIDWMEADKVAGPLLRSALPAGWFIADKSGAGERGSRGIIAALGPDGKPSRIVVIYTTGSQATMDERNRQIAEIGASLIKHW
smiles,measurement,setting,value
CC1=C(C)/C(=N\OS(=O)(=O)c2ccc(C)cc2)C=CC1=O,EC50,[1],35.2 µM (active)
same,EC50,[2],37.6 µM (active)
same,IC50,[3],5.11 µM (active)
same,AC50,[4],1.61 µM (active)
same,AC50,INS1,2.15 µM (active)
same,IC50,[5],3.42 µM (active)
same,IC50,Beta Lactamase,31 µM (inactive)
CCc1cccc2c(C(=O)COC(=O)c3cnc(C)cn3)c[nH]c12,AC50,[6],20 µM (active)
Nc1ccc2cc3ccccc3cc2c1 [2-AMINOANTHRACENE],AC50,HeLa,122 µM (active)
same,AC50,Cytochrome P450 3A4,15.8 µM (inconclusive)
same,AC50,[7],25.1 µM (inconclusive)
Oc1nc2ccccc2n1C1CCN(C(c2nnnn2C2CCCCC2)C2CC2)CC1 (stereo not given),IC50,[8],3.14 µM (active)
O=[N+]([O-])c1ccc(O)c(/C=N/NC2=NS(=O)(=O)c3ccccc32)c1,IC50,Nonstructural protein 1,2.35 µM (active)
same,IC50,[9],34.9 µM (active)
same,IC50,[10],5.41 µM (active)
same,IC50,Prothrombin,36.8 µM (active)
COc1ccc(C(=O)Nc2ccc3c(c2)C(=O)c2ccccc2C3=O)cc1OC,IC50,[11],> 100 µM (inactive)
CC1(C)OC(=O)C(=Cc2ccc(-c3ccc(S(N)(=O)=O)cc3)o2)C(=O)O1,IC50,Melanocortin receptor 4,> 64.6 µM (inactive)
same,IC50,[12],> 64.6 µM (inactive)
same,IC50,[13],41.8 µM (active)
CCNC1CCC(Nc2ccnc3cc(Cl)ccc23)CC1 (stereo not given),AC50,[14],25.9 µM (active)
same,AC50,[15],7.52 µM (active)
C[C@H](O)[C@@H]1C(=O)N2CCc3c([nH]c4ccccc34)[C@@H]2C[C@@H]1N(C)Cc1ccc2c(c1)OCO2,IC50,[16],1.34 µM (active)
same,IC50,[17],83.3 µM (inactive)
same,IC50,[18],0.672 µM (active)
same,IC50,[19],> 83.3 µM (inactive)
O=C(Cn1cc(C(=O)COc2ccccc2)c2ccccc21)NCc1ccco1,IC50,[9],47.6 µM (active)
same,IC50,[10],> 100 µM (inactive)
same,IC50,Prothrombin,41.3 µM (active)
CCOC(=O)c1c(NC(=O)COc2cccc3c2CCN(C)C3=O)sc2c1CCC2,IC50,Melanocortin receptor 4,> 64.6 µM (inactive)
same,AC50,[20],5.44 µM (active)
same,AC50,[21],41.7 µM (active)
same,AC50,[22],22.8 µM (active)
same,IC50,[12],> 64.6 µM (inactive)
same,IC50,Protein Wnt-3a,6.12 µM (active)
